Reference: the supplement of paper PMC10883282
Counter-ions that a name gives are not always drawn. ± gives the standard deviation of the averaged measurements.

Tested on: A204
Assay: relative viability vs DMSO control (72 h) (fraction); higher = more viable cells
Summary of the method: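 After seeding at densities set for 80–90% confluence in 384-well plates, sarcoma cell lines waited 24 h before 2.5 µl of serially diluted compound was added. Source plates held 10 mM down to 0.0002 mM. Plates were incubated 72 h at 37 °C with 5% CO2, with 0.1% DMSO vehicle and a 5 µM positive control, and relative viability was taken from ATPLite as percent growth averaged over up to triplicate wells, with 1 set as full and 0 as none.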

| SMILES | relative viability (0.00017 µM) | relative viability (0.00051 µM) | relative viability (0.00152 µM) | relative viability (0.00457 µM) | relative viability (0.01372 µM) | relative viability (0.04115 µM) | relative viability (0.1235 µM) | relative viability (0.3704 µM) | relative viability (1.111 µM) | relative viability (3.333 µM) | relative viability (10 µM) |
| --- | --- | --- | --- | --- | --- | --- | --- | --- | --- | --- | --- |
| O=C(Nc1cnn2ccc(N3CCC[C@@H]3c3cc(F)ccc3F)nc12)N1CC[C@H](O)C1 [Larotrectinib] | 1.11 ± 0.015 | 1.1 ± 0.029 | 1.11 ± 0.037 | 1.06 ± 0.043 | 1.11 ± 0.039 | 1.08 ± 0.02 | 1.09 ± 0.046 | 1.11 ± 0.04 | 1.06 ± 0.057 | 1.115 ± 0.011 | 1.09 ± 0.016 |
| C[C@@H]1COCCN1c1cc(-c2ccnn2C)c2ccnc(-c3ccn[nH]3)c2n1 | 1.07 ± 0.068 | 1.05 ± 0.039 | 1.07 ± 0.067 | 1.08 ± 0.061 | 1.03 ± 0.037 | 0.903 ± 0.019 | 0.668 ± 0.05 | 0.431 ± 0.04 | 0.291 ± 0.015 | 0.231 ± 0.0066 | 0.222 ± 0.0062 |
| CC(C)N1CCN(Cc2cnc(-c3cc(-c4cccc5[nH]ccc45)cc4[nH]ncc34)o2)CC1 [Nemiralisib] | 0.981 ± 0.046 | 0.988 ± 0.022 | 0.998 ± 0.039 | 0.982 ± 0.015 | 0.97 ± 0.058 | 0.97 ± 0.017 | 0.956 ± 0.0079 | 0.897 ± 0.03 | 0.847 ± 0.053 | 0.631 ± 0.035 | 0.359 ± 0.021 |
| COc1cccc2c1C(=O)c1c(O)c3c(c(O)c1C2=O)C[C@@](O)(C(=O)CO)C[C@@H]3O[C@H]1C[C@H](N)[C@H](O)[C@H](C)O1 [Doxorubicin Hydrochloride] | 1.06 ± 0.015 | 1.07 ± 0.06 | 1.04 ± 0.006 | 0.941 ± 0.031 | 0.779 ± 0.1 | 0.56 ± 0.068 | 0.314 ± 0.032 | 0.137 ± 0.024 | 0.128 ± 0.0019 | 0.123 ± 0.014 | 0.118 ± 0.019 |
| Nc1cc(C(F)(F)F)c(-c2cc(N3CCOCC3)nc(N3CCOCC3)n2)cn1 [Buparlisib] | 1.05 ± 0.023 | 1.03 ± 0.021 | 1.05 ± 0.032 | 1.02 ± 0.013 | 1.03 ± 0.065 | 1.01 ± 0.038 | 0.879 ± 0.021 | 0.673 ± 0.011 | 0.332 ± 0.066 | 0.174 ± 0.0058 | 0.155 ± 0.0086 |
| Cc1cc(Nc2ncnc3ccc(NC4=NC(C)(C)CO4)cc23)ccc1Oc1ccn2ncnc2c1 [Tucatinib] | 1.092 ± 0.0055 | 1.08 ± 0.021 | 1.08 ± 0.024 | 1.1 ± 0.016 | 1.1 ± 0.012 | 1.08 ± 0.011 | 1.09 ± 0.025 | 1.02 ± 0.052 | 1.02 ± 0.067 | 0.985 ± 0.13 | 0.636 ± 0.034 |
| Cc1nc(-c2cn3c(n2)-c2ccc(-c4cnn(C(C)(C)C(N)=O)c4)cc2OCC3)n(C(C)C)n1 [Taselisib] | 1.05 ± 0.1 | 1.03 ± 0.086 | 0.993 ± 0.039 | 0.924 ± 0.061 | 0.852 ± 0.085 | 0.742 ± 0.041 | 0.609 ± 0.021 | 0.538 ± 0.028 | 0.435 ± 0.019 | 0.354 ± 0.038 | 0.29 ± 0.02 |
| CN1CCC(COc2cnc(-c3cccc(Cn4nc(-c5cccc(C#N)c5)ccc4=O)c3)nc2)CC1 [Tepotinib] | 1.11 ± 0.052 | 1.09 ± 0.052 | 1.1 ± 0.044 | 1.09 ± 0.059 | 1.08 ± 0.043 | 1.05 ± 0.012 | 1.09 ± 0.047 | 1.05 ± 0.03 | 1.07 ± 0.083 | 1.06 ± 0.073 | 0.76 ± 0.054 |
| CNC(=O)c1cc(Oc2ccc(NC(=O)Nc3ccc(Cl)c(C(F)(F)F)c3)c(F)c2)ccn1 [Regorafenib] | 1.06 ± 0.046 | 1.07 ± 0.05 | 1.05 ± 0.067 | 1.08 ± 0.051 | 1.079 ± 0.0072 | 1.05 ± 0.032 | 0.987 ± 0.06 | 0.589 ± 0.033 | 0.434 ± 0.0088 | 0.305 ± 0.033 | 0.219 ± 0.0053 |
| CCCS(=O)(=O)Nc1ccc(F)c(C(=O)c2c[nH]c3ncc(-c4ccc(Cl)cc4)cc23)c1F [Vemurafenib] | 1.066 ± 0.009 | 1.09 ± 0.011 | 1.07 ± 0.067 | 1.09 ± 0.043 | 1.08 ± 0.047 | 1.07 ± 0.018 | 1.07 ± 0.038 | 1.11 ± 0.025 | 1.12 ± 0.027 | 1.02 ± 0.054 | 0.617 ± 0.029 |
| COc1c(OCCCN2CCOCC2)ccc2c1N=C(NC(=O)c1cnc(N)nc1)N1CCN=C21 [Copanlisib] | 1.05 ± 0.035 | 1.01 ± 0.07 | 0.927 ± 0.023 | 0.711 ± 0.055 | 0.583 ± 0.037 | 0.481 ± 0.049 | 0.399 ± 0.05 | 0.316 ± 0.027 | 0.268 ± 0.018 | 0.235 ± 0.019 | 0.211 ± 0.038 |
| CC(=O)Nc1cccc(-n2c(=O)n(C3CC3)c(=O)c3c(Nc4ccc(I)cc4F)n(C)c(=O)c(C)c32)c1 [Trametinib] | 1.08 ± 0.084 | 1.08 ± 0.05 | 1.09 ± 0.034 | 1.08 ± 0.035 | 1.04 ± 0.047 | 0.977 ± 0.06 | 0.77 ± 0.071 | 0.576 ± 0.024 | 0.544 ± 0.022 | 0.536 ± 0.0082 | 0.491 ± 0.015 |
| COCc1c(-c2cc3cc(C)cc(OC)c3s2)c2c(N)ncnn2c1CN1CCNC(=O)C1 [Rogaratinib] | 1.09 ± 0.039 | 1.07 ± 0.069 | 1.09 ± 0.036 | 1.08 ± 0.019 | 1.05 ± 0.039 | 0.95 ± 0.058 | 0.827 ± 0.048 | 0.631 ± 0.043 | 0.548 ± 0.008 | 0.44 ± 0.014 | 0.268 ± 0.025 |
| COc1cc2/c(=N/c3ccc(Br)cc3F)nc[nH]c2cc1OCC1CCN(C)CC1 [Vandetanib] | 1.04 ± 0.076 | 1.02 ± 0.018 | 1.02 ± 0.049 | 1.03 ± 0.067 | 1.04 ± 0.046 | 1 ± 0.067 | 0.981 ± 0.057 | 0.93 ± 0.07 | 0.706 ± 0.039 | 0.348 ± 0.073 | 0.0148 ± 0.0046 |
| CNC(=O)c1ccc(-c2cnc3ncc(Cc4ccc5ncccc5c4)n3n2)cc1F [Capmatinib] | 1.1 ± 0.029 | 1.07 ± 0.019 | 1.08 ± 0.04 | 1.08 ± 0.024 | 1.07 ± 0.038 | 1.06 ± 0.015 | 1.1 ± 0.02 | 1.07 ± 0.054 | 1.04 ± 0.027 | 0.984 ± 0.054 | 0.787 ± 0.035 |
| CCN1CCN(Cc2ccc(Nc3ncc(F)c(-c4cc(F)c5nc(C)n(C(C)C)c5c4)n3)nc2)CC1 [Abemaciclib] | 1.05 ± 0.033 | 1.04 ± 0.035 | 1.04 ± 0.017 | 1.03 ± 0.034 | 0.976 ± 0.015 | 0.876 ± 0.027 | 0.77 ± 0.08 | 0.564 ± 0.023 | 0.417 ± 0.024 | 0.383 ± 0.031 | 0.333 ± 0.029 |
| C=CC(=O)N1CCC[C@@H](n2nc(-c3ccc(Oc4ccccc4)cc3)c3c(N)ncnc32)C1 [Ibrutinib] | 1.03 ± 0.019 | 1.06 ± 0.11 | 1.04 ± 0.057 | 1.07 ± 0.059 | 1.05 ± 0.048 | 1.09 ± 0.034 | 1.07 ± 0.095 | 1.07 ± 0.026 | 1.008 ± 0.0098 | 0.939 ± 0.13 | 0.525 ± 0.026 |
| Cn1cnc2c(F)c(Nc3ccc(Br)cc3F)c(C(=O)NOCCO)cc21 [Binimetinib] | 1.04 ± 0.031 | 1.06 ± 0.029 | 1.063 ± 0.0083 | 1.07 ± 0.019 | 1.04 ± 0.015 | 1.02 ± 0.043 | 1.02 ± 0.023 | 0.9365 ± 0.0019 | 0.922 ± 0.023 | 0.902 ± 0.038 | 0.713 ± 0.023 |
